Test results published in a melting point compilation (Tetko et al.; mined from patent text by program, amines drawn as free bases though some values may be those of a salt).
Residues, ends and D or L forms follow the SMILES beside them. *: point of attachment. Tos = Cc1ccc(S(=O)(=O)*)cc1

| Compound | melting point [°C] |
| --- | --- |
| COCCc1nc2c(N)nc3ccccc3c2n1CCCCNC(=O)c1cnc2ccccc2n1 | 85 to 87 |
| O=c1[nH]c2ccccc2n1-c1ncnc2nn(C3CCCC3)cc12 | 236 to 240 |
| CCN(CC)c1ccc(C2(c3c(C)n(CC)c4ccccc34)OC(=O)c3ccccc32)c(OC(C)C)c1 (stereo not given) | 193 |
| CC(C)c1nc(C(C)C)c(/C=C/C=O)c(-c2ccc(F)cc2)c1C=CC=O | 122 to 123 |
| CCCCc1oc2ccccc2c1C(=O)NCc1ccc2c(-c3ccc(Cl)cc3)c(OC(Cc3ccccc3)C(=O)OC)ccc2c1 (stereo not given) | 59 to 62 |
| CCCCCN(CCC12CC3CC(CC(C3)C1)C2)C(=O)NCCCc1ccccn1 | 84.4 to 85.7 |
| CCN1c2ncc(CCl)cc2C(=O)N(C)c2ccc(Cl)nc21 | 133 to 134 |
| Cn1cc(-c2cc(-c3cnc4[nH]ccc4c3)ccn2)n(-c2ccc(C(C)(C)C#N)cc2)c1=O | 248 |
| Clc1nc2cc3ccccc3cc2nc1Cl | 239 to 242 |
| Cc1c[nH]c2c(C=O)cccc12 | 77 to 79 |
| c1ccc(Cn2cnc3c(OC4CN5CCC4CC5)nccc32)cc1 (stereo not given) | 162 to 183 |
| Nc1nc2cc(Br)ccc2c2c1nc1n2CCCO1 | 273 to 276 |
| Cc1cc(C)c(Nc2nc(C)ccc2S(=O)(=O)c2ccc(OCc3ccc(F)cc3)cc2)c(C)c1 | 178 to 180 |
| Cc1cc(-c2ccccc2)nnc1NN | 162 |
| CCOc1nc2cccc(C(=O)OC)c2n1Cc1ccc(-c2ccccc2C#N)cc1 | 168 to 170 |
| COc1cc(OC(C)C)ccc1/C=C/c1cc(/C=C/c2ccc3cc[nH]c3c2)n[nH]1 | 107 to 113 |
| Cc1ccc(Nc2nc(-n3nc(C)cc3C)nc3ccccc23)cc1 | 210 to 216 |
| COC(=O)c1cnc(C(=O)O)nc1 | 152 to 154 |
| CC(=O)Oc1ccc(Cl)cc1C(=O)Cl | 35 to 38 |
| CCCCCc1c(/C=C/C(=O)Oc2ccc([N+](=O)[O-])cc2)sc2cc(OC)ccc12 | 111 to 113 |
| C=CCc1cc(COC(=O)C(C)(C)C)ccc1C#CC1(O)CN2CCC1CC2 (stereo not given) | 73 |

| Compound | melting point [°C] |
| --- | --- |
| C=CCc1c(OCCCOc2ccc(C(C)=O)c(O)c2CCC)ccc2oc(C(=O)O)cc12 | 157 to 158 |
| O=C(Nc1c(Cl)cccc1Cl)N1CCN(c2cnccn2)CC1 | 177 to 179 |
| c1csc(N2CCN(Cc3ccc4sccc4c3)CC2)n1 | 80 to 82 |
| CN1C2CCC1CC(NC(=O)c1cccc3nc(-c4ccccc4)oc13)C2 (stereo not given) | 164 to 166 |
| O=C(O)c1ccc(C(=O)N2CCCc3ccccc32)cc1 | 181 to 183 |
| CCNC(=S)NS(=O)(=O)c1cc2c(cc1OC)OCC(NC(=O)c1cc(Cl)ccc1OC)C2 (stereo not given) | 194 to 195 |
| CS(=O)(=O)N1CCC(NC(=O)NC23CC4CC(CC(C4)C2)C3)CC1 | 228 to 229 |
| COc1ccc(CCN2CCC(C(=O)O)(S(=O)(=O)c3ccc(OC)cc3)CC2)cc1 | 205 |
| O=C(Cc1ccccc1)Oc1cc(=O)n(-c2ccccc2)c2ncccc12 | 179 to 180 |
| Cc1c(-c2ncc(Cl)cc2F)nn(C)c1C(=O)O | 194 to 196 |
| Cc1cc(CCCCCOc2c(Cl)cc(C3=NCCO3)cc2Cl)on1 | 42 to 43 |
| O=C1CCN(C2c3ccccc3COc3ccc(Br)cc32)CC1 (stereo not given) | 196 to 200 |
| CCCCCCCCCCN1C(=O)C2CC(c3ccc(N)cc3)(C2)C1=O | 81.5 to 82.5 |
| N=C(Nc1cccc(NC(=O)/C=C/c2ccc(Cl)cc2)c1)c1ccccc1 | 109 to 110 |
| CN(Cc1cc2c3c(c1)c(=O)c(C(=O)NCc1ccc(Cl)cc1)cn3CC(=O)N2C)C[C@@H](O)c1cc2ccccc2o1 | 86 to 87 |
| CCOC(=O)CCNC(=O)Nc1ccncc1 | 95 |
| Cc1nc2c(N)nc3ccc(OCc4ccccc4)cc3c2n1CCCCCS(C)(=O)=O | 215 to 217 |
| COc1ccn(-c2nc(C)c(C(=O)NCc3ccccc3)s2)c(=O)c1 | 205 to 208 |
| COc1ccc2c(c1)Sc1c(cc(OC)c(O)c1Br)N2C | 154 to 155 |
| COc1ccccc1-c1cccc(C#N)c1 | 58 |
| Cc1ccc(Cl)cc1N1CCCN(CC(C)C)C1=S | 96 to 98 |

Now from value to compound:

| melting point [°C] | Compound |
| --- | --- |
| 117 to 119 | CC(=O)NCCCCCC(=O)Nc1ncccc1C(=O)c1ccc(Cl)cc1 |
| 232 to 235 | NNc1nc2c(Cl)cccc2s1 |
| 166 to 167 | CC1(CNCc2cc3cc(NC(=O)c4ccc(OCC5CC5)cc4)ccc3[nH]2)COC1 |
| 168 to 170 | CCn1ncc(OCc2ccc(C3CCCCC3)cc2)c(Cl)c1=O |
| 168 to 170 | O=C(/C=C/c1ccn(S(=O)(=O)c2ccc(CN3CCOCC3)cc2)c1)NO |
| 184 to 186 | CC(=O)NCC12CC(c3ccccc31)c1ccccc12 |
| 85 to 86.5 | Cc1ccsc1C(=O)Cc1ccccc1[N+](=O)[O-] |
| 163 to 164 | COc1ccc(C2=C(c3ccccc3)CCCc3cc(OCc4ccccc4)ccc32)cc1 |
| 207 to 208 | Cn1c(-c2ccc([N+](=O)[O-])cc2)cnc1[C@H](Cc1ccccn1)N(C=O)c1cc2cc(F)ccc2o1 |
| 160 to 161 | CCCc1cnc2c(NC(=O)c3c(Cl)cccc3Cl)cccc2c1-n1ccnc1 |
| 89 to 91 | O=C(c1cccnc1)N1CCC(c2ccccc2F)=N1 |
| 163 to 165 | CCOC(=O)c1c(NCc2ccccc2)nc2ccc(Br)cc2c1Cl |
| 308 to 310 | COc1ccc(C2C3=C(COC3=O)Nc3ccc4nn[nH]c4c32)c(F)c1 (stereo not given) |
| 206 to 208 | CCN(CC)c1ccc(C2(c3ccc(N(C)C)cc3N(C)C)OC(=O)c3c(Cl)c(Cl)c(Cl)c(Cl)c32)cc1 (stereo not given) |
| 87 to 88 | Cc1nc(CO)n(COCc2ccccc2)c1Sc1ccccc1 |
| 132 | CNC(=O)[C@@H]1C=CCN1S(=O)(=O)c1ccc(Cl)c(COc2cccc3c(-n4ccnc4)cc(C)nc23)c1Cl |
| 189 to 190 | CC(C)(C)C(=O)Nc1ccc2oc3c(c2c1)CCCCCC3 |
| 118 to 120 | Cn1c(C(F)(F)F)cc(=O)n(-c2cc(OC3CCCC3)c(Cl)cc2F)c1=O |
| 220 to 222 | COc1ccc(C=C2NC(=O)NC2=O)cc1OC1CCCC1 |
| 67 to 68 | CCCCCCOc1ccc(C=C(C#N)c2cccnc2)cc1 |

| melting point [°C] | Compound |
| --- | --- |
| 143 to 144 | COc1ccc(C2Sc3c(Cl)cccc3N(CCN(C)C)C(=O)C2O)cc1 (stereo not given) |
| 242 to 243 | O=C(Nc1ccc(C(F)(F)F)cc1)N1CC(c2ccc(Cl)cc2)C(c2ccc(Cl)cc2)N1 (stereo not given) |
| 120 to 122 | CCCN1CC(c2ccc(S(C)(=O)=O)cc2)=C(c2cccc(C)c2)C1=O |
| 90 to 93 | CC(C)(C)c1cc(C=C(C#N)c2ccccn2)cc(C(C)(C)C)c1 |
| 195 to 197 | CCCOc1ccccc1-c1nc2nnc(SC)nc2c(=O)[nH]1 |
| 162 | COC(=O)[C@H]1CC[C@H](Oc2ccc(C(=O)O)cc2)CC1 |
| 214 | O=C(O)Cc1nn(Cc2nc3cc(Br)ccc3s2)c(=O)c2ccccc12 |
| 108 to 109 | CCOC(=O)c1c(C)cc2c(c1C)C(=O)O/C2=C\C#N |
| 124 to 126 | CC(c1ccc(CCNC(=O)c2ccc(Br)cc2)cc1)N1CCCC1 (stereo not given) |
| 140 to 142 | COC(=O)c1ccc(/C=C/c2c(OC)cc3c(c2OC)C(C)(C)CCC3(C)C)cc1 |
| > 250 | O=C(O)c1ccccc1-c1nc2ccccc2o1 |
| > 350 | O=c1[nH][nH]c2c1c(O)nc1cc(Cl)ccc12 |
| 130 to 135 | O=C(O)C1CN(c2ccc(-c3noc(CN4C(=O)c5ccccc5C4=O)n3)cc2)C(=O)O1 (stereo not given) |
| 55 to 58 | N#Cc1cc(Cl)ncc1Cl |
| 108 to 112 | COc1ccc(-c2ccc3c(c2)CC[C@H]2N(C)C(=O)CC[C@]32C)cc1OC |
| 79 to 80 | Cc1ccc(CCCc2c(C(C)C)nc(C(C)C)c(CO)c2-c2ccc(F)cc2)cc1 |
| 43.7 | Cc1ccc(Nc2ccc(OC(F)(F)F)cc2)cc1 |
| 175 to 177 | CNC(=O)N(C)c1nc(CC(=O)Nc2nnc(C(C)(C)C)s2)cs1 |
| 280 | CC1(N)CN(c2c(F)cc3c(=O)c(C(=O)O)cn(-c4nc(N)c(F)cc4F)c3c2Cl)C1 |
| 185 to 188 | O=C(Nc1ccc(-n2nc(C(F)(F)F)cc2C(F)(F)F)cc1)c1cccnc1 |

| melting point [°C] | Compound |
| --- | --- |
| 48 to 51 | COc1ccc(C2CC(=O)N(C(=S)NCc3ccc(F)cc3)N2C)cc1OC1CCCC1 (stereo not given) |
| 204 to 206 | Cc1c(F)c(NCc2ccccc2)cc2oc(=O)[nH]c12 |
| 170 to 172 | COc1ccc(NS(C)(=O)=O)cc1C(=O)NC1CCN(C2CCCCC2)C1 (stereo not given) |
| 145 to 146 | Ic1cnn(-c2cccnc2)c1 |
| 45 to 55 | Cc1ccc(S(=O)(=O)N2CCC[C@H]2C(=O)N[C@@H](CCC(N)=O)C(=O)O)cc1 (Tos-Pro-Gln-OH) |
| 93.5 to 94.5 | Cc1ccc(S(=O)(=O)N(C)c2ccc(F)cc2[N+](=O)[O-])cc1 |
| 285 to 286 | CC(=O)C1C(C(=O)c2ccc(Br)cc2)CC2C3CCC4=CC(=O)C=CC4(C)C3(F)C(O)CC21C (stereo not given) |
| 280 to 283 | O=C1NC2CCCC1NC2=O |
| 125 to 128 | CCOC(=O)c1c(-c2cccc([N+](=O)[O-])c2)cc(-c2ccccc2)nc1CBr |
| 93 to 94 | COc1cccc(-c2nc3c(C(N)=O)cccc3[nH]2)c1 |
| 126 to 127 | CCOC(=O)C1=C(C)NC(C#N)=C(C(=O)OCC)C1c1ccccc1C(=O)OC (stereo not given) |
| 250 to 252 | O=C1Nc2ccccc2Sc2nccn21 |
| 108 to 109 | O=S(=O)(c1ccc(Cl)cc1)n1ccc2cc(F)ccc21 |
| 109 | CN(C)CCOc1ccc2ccc(NC(=O)c3ccccc3)nc2n1 |
| 51.5 to 53.5 | OC(c1cccc(Oc2ccccc2)n1)C(F)(F)F (stereo not given) |
| 140 to 142 | NC(=S)Nc1ccccc1-c1ccc(F)cc1 |
| 275 | Cc1nc2scc(C)n2c(=O)c1CCN1CCC(c2c[nH]c3ccccc23)CC1 |
| 150 to 152 | CN(Cc1cc2c3c(c1)c(=O)c(C(=O)NCc1ccc(F)cc1)cn3CC(=O)N2C)C[C@@H](O)c1ccccc1 |
